{
  "source": "patent US7329798B2",
  "about": "“Harvest-inducible regulatory elements and methods of using same” (University of Guelph, priority 2002, dated 2008)",
  "key": {"[1]": {"system": "H7 regulatory region fused to GUS reporter gene in transgenic tobacco plants", "experiment": "In planta induction of GUS expression by ABA (histochemical GUS assay)", "format": "in vivo, tobacco (cultivar PetH4)", "settings": "plants sprayed with 25-50 mL 6.0 AM ABA in distilled water with Tween-20, left 24 h; non-treated plants exhibited no GUS activity", "description": "Tobacco leaves from regenerated plants grown in the greenhouse, and leaves and stems from M. truncatula plants grown from the cocultivated seedlings were incubated in the X-gluc substrate and the green pigments removed for visualization of the blue precipitate resulting from GUS enzyme activity (Jefferson et al., 1987, EMBO J. 6:3901-7).\n(§1) In order to test induction of the expression of transgenes using abscisic acid (ABA), the H7 promoter was fused to the beta-glucuronidase (GUS) reporter gene and histochemical assays conducted for GUS gene activity, which results in a blue colour in plant tissue (Jefferson et al., 1987, EMBO J. 6:3901-7). The promoter region for the H7 (nucleotides 1-634 of FIG. 8; SEQ ID NO:4) was fused to the 5′ terminus of the GUS gene in the binary vector pB1101 (Jefferson et al., 1987, EMBO J. 6:3901-7, FIG. 1a), as described in Example 4.\nThe binary vector was transferred tobacco plants (cultivar PetH4) using Agrobacterium tumefaciens, as previously described in Example 4.\n(§2) Transgenic plants were grown to maturity, but prior to flowering, in a greenhouse at 23-25° C., with supplemental light to provide an approximately 16 h photoperiod and with 20-20-20 fertilizer as required.\nPlants were sprayed with 25-50 mL 6.0 AM ABA (trans isomers ABA, Sigma) in distilled water, with a drop of Tween™-20 until the leaves were dripping. […]"}, "[2]": {"system": "H7 regulatory region fused to GUS reporter gene in transgenic tobacco callus", "experiment": "In vitro induction of GUS expression by ABA in callus (histochemical GUS assay)", "format": "cell-based, tobacco (cultivar PetH4)", "settings": "callus on solid media pH 5.0 with 40 μM ABA, 2 days, 25° C.", "from_the_text": "as §1, §2\nLeaf discs were cut and surface sterilized using 3.5% bleach for 20 min, then washed with ethanol and rinsed three times with distilled water. The washed discs were plated in Petri dishes on original callusing media (MS medium supplemented with vitamins, 2.0 mg/L NAA, 0.2 mg/L BAP pH 5.8, 7 g/L agar solid media and 100 mg/L kanamycin). The Petri dishes were then placed in a dark incubator at 25° C. for 3 days. Following dark incubation, plated discs were then incubated at 25° C. with a 16 h photoperiod for 2-3 weeks.\nOver this time, abundant callus (white or pale green) are formed, overgrowing the original tissue. […]"}},
  "data": [
    {"smiles": "CC1=CC(=O)CC(C)(C)[C@@]1(O)/C=C/C(C)=C\\C(=O)O", "note": "[ABA, abscisic acid]", "values": [
      {"measurement": "GUS activity in leaves", "setting": "[1]", "result": "GUS activity was detected"},
      {"measurement": "GUS expression in callus", "setting": "[2]", "result": "GUS is expressed in the callus"}
    ]}
  ]
}
